Measurements reported in patent US4031198A, “Technetium-labeled complexes, production and use thereof” (priority 1974, dated 1977).
One block for each molecule: values may come before it.

Key:
[1] = Partition coefficient of Tc complexes, water/n-octyl alcohol, by radioactivity; format: physicochemical; conditions: water/n-octanol
Description: These partition coefficient studies involve plotting pH vs. The natural logarithm of the ratio of the activity in water to the activity in normal octyl alcohol, hereinafter referred to as ln(aw /ao). In the pH range of 5 to 8, the complex should not be so lipophilic as to have an ln(aw /ao) of less than -2, particularly at the higher pH levels. On the other hand, the hydrophilicity must also be kept within limits, as the following table illustrates:
Acid, salt, hydroxyl, amino or other polar groups present on the complexing agent molecule can provide a water solubilizing or hydrophilic effect which is reflected in higher ln aw /ao values, but due regard must be accorded to the variety of fluids, organs and tissues in mammals, each of which can have a distinctively acidic or basic environment, ranging from, for example, the low pH of the stomach to the relatively high pH of the intestines. The blood is on the mildly alkaline side at pH = 7.4. Thus, partition coefficient data on the Tc-complexes of this invention are preferably obtained throughout the pH range of 5 to 8. The use of partition coefficient data in pharmacology is well-established; see Andrejus Korolkvas, Essentials of Molecular Pharmacology, Wiley (interscience), N.Y., N.Y., 1970. […] Natural logarithms of partition coefficients are tabulated in several of the Examples which follow.
Partition coefficients for the Tc-DHT complex of this Example were determined with a water/n-octyl alcohol system over the pH range of 5 to 8 using radioactive measurements to determine the amount of Tc-99m in each phase. The expression aw /ao is the ratio of the activity in water to the activity in n-octyl alcohol. For comparison, partition coefficients over the same pH range were determined for sodium 99m pertechnetate and cysteine (HS-CH2 CH(NH2)COOH).
The aw /ao ratios for the 99mTc-4-mercaptobutanol complex were determined as in Example 1, except that two independently determined ln(aw /ao) vs. pH plots were averaged.
The aw /ao ratios for the Tc 99m complex of this Example were determined as in Example 1. The results (ln data accurate to ± 0.5) were as follows:
A series of Tc-99m complexes were made by reducing NaTcO4 and reacting the reduced Tc-99m species with the following aliphatic mercapto alcohols:
Partition coefficients were determined as in Examples 1, 3, and 5 in Tables II, III, and VI.

[2] = In vivo study of liver or gall-bladder specificity

SMILES: CC(C)(O)CCS [4-mercapto-2-methyl-2-butanol]
logD ([1]; pH 5): 1 | logD ([1]; pH 6): 1.1 | logD ([1]; pH 7): 1.2 | logD ([1]; pH 8): 1.3

SMILES: [Na+].[O]=[99Tc](=[O])(=[O])[O-] [Na99mTcO4, sodium 99m pertechnetate, reference compound]
Ln of partition coefficient, ln(aw /ao) ([1]; pH 5): +3.2 | Ln of partition coefficient, ln(aw /ao) ([1]; pH 6): +3.3 | Ln of partition coefficient, ln(aw /ao) ([1]; pH 7): +3.5 | Ln of partition coefficient, ln(aw /ao) ([1]; pH 8): +3.6 | liver or gall-bladder specificity [2]: insufficient liver or gall-bladder specificity

The next lines start with the values.

logD ([1]; pH 5): -0.2 | logD ([1]; pH 6): -0.1 | logD ([1]; pH 7): -0.1 | logD ([1]; pH 8): 0
SMILES: OCCCCCS [5-mercapto pentanol]

Ln of partition coefficient, ln(aw /ao) ([1]; pH 5): -0.5 | Ln of partition coefficient, ln(aw /ao) ([1]; pH 6): -0.4 | Ln of partition coefficient, ln(aw /ao) ([1]; pH 7): -0.3 | Ln of partition coefficient, ln(aw /ao) ([1]; pH 8): -0.2
SMILES: OCCCS [3-mercapto propanol]

Ln of partition coefficient, ln(aw /ao) ([1]; pH 5): -0.9 | Ln of partition coefficient, ln(aw /ao) ([1]; pH 6): -0.8 | Ln of partition coefficient, ln(aw /ao) ([1]; pH 7): -0.7 | Ln of partition coefficient, ln(aw /ao) ([1]; pH 8): -0.6
SMILES: OCCS [2-mercapto-ethanol]
